Experimental data from patent US10738011B2, “Derivatives of 5-(hetero)arylpyrazol-3-carboxylic amide or 1-(hetero)aryltriazol-4-carboxylic amide useful for the treatment of inter alia cystic fibrosis” (Proteostasis Therapeutics, Inc., priority 2014, dated 2020).

Biological target: T1, ΔF508-CFTR (Homo sapiens, UniProt P13569, DEL508-508)
T1 construct: Primary lung epithelial cells homozygous for the Cystic Fibrosis-causing ΔF508 mutation were differentiated; endogenous in cells; host or cells: primary lung (bronchial) epithelial cells (hBE) homozygous for ΔF508, differentiated at an air-liquid interface
Test: hBE Equivalent Current (Ieq) Assay
Format: cell-based
Conditions: AUC of equivalent chloride current; primary lung epithelial cells homozygous for ΔF508; compound at 10 uM with VX-809 at 1 uM, 24 hours; activity relative to VX-809 (1 uM)
Procedure: Primary lung epithelial cells homozygous for the Cystic Fibrosis-causing ΔF508 mutation were differentiated for a minimum of 4 weeks in an air-liquid interface on Costar 24 well HTS filter plates prior to the equivalent current (Ieq) measurements. Cells were apically mucus-washed for 30 minutes 24 h prior to treatment with compounds. The basolateral media was removed and replaced with media containing the compound of interest diluted to its final concentration from DMSO stocks. Treated cells were incubated at 37° C. and 5% CO2 for 24 hours. At the end of the treatment period, the media was changed to the Ieq experimental solution for 30 minutes before the experiment and plates are maintained in a CO2-free incubator during this period. The plates containing the cells were then placed in pre-warmed heating blocks at 36° C.±0.5 for 15 minutes before measurements are taken. The transepithelial voltage (VT) and conductance (GT) were measured using a custom 24 channel current clamp (TECC-24) with 24 well electrode manifold. The Ieq assay measurements were made following additions with standardized time periods: • 1. The baseline VT and GT values were measured for approximately 20 minutes. • 2. Benzamil was added to block ENaC for 15 minutes. • 3. Forskolin plus VX-770 were added to maximally activate ΔF508-CFTR for 27 minutes. • 4. Bumetanide was added to inhibit the NaK2Cl cotransporter and shut-off secretion of chloride.
The activity data captured was the area under the curve (AUC) for the traces of the equivalent chloride current. The AUC was collected from the time of the forskolin/VX-770 addition until the inhibition by bumetanide addition. Correction in response to compound treatment was scored as the increase in the AUC for compound-treated samples over that of vehicle-treated samples. (** indicates activity ≥200% of VX-809 (1 uM) with compound at 10 uM and VX-809 at 1 uM; * indicates activity 100-200% of VX-809 (1 uM) with compound at 10 uM and VX-809 at 1 uM. ^## indicates activity ≥200% of VX-809 (3 uM) with compound at 10 uM and VX-809 at 3 uM; ^# indicates activity 100-200% of VX-809 (3 uM) with compound at 10 uM and VX-809 at 3 uM.

T1 sequence (P13569 with tags, fused parts or gaps DEL508-508): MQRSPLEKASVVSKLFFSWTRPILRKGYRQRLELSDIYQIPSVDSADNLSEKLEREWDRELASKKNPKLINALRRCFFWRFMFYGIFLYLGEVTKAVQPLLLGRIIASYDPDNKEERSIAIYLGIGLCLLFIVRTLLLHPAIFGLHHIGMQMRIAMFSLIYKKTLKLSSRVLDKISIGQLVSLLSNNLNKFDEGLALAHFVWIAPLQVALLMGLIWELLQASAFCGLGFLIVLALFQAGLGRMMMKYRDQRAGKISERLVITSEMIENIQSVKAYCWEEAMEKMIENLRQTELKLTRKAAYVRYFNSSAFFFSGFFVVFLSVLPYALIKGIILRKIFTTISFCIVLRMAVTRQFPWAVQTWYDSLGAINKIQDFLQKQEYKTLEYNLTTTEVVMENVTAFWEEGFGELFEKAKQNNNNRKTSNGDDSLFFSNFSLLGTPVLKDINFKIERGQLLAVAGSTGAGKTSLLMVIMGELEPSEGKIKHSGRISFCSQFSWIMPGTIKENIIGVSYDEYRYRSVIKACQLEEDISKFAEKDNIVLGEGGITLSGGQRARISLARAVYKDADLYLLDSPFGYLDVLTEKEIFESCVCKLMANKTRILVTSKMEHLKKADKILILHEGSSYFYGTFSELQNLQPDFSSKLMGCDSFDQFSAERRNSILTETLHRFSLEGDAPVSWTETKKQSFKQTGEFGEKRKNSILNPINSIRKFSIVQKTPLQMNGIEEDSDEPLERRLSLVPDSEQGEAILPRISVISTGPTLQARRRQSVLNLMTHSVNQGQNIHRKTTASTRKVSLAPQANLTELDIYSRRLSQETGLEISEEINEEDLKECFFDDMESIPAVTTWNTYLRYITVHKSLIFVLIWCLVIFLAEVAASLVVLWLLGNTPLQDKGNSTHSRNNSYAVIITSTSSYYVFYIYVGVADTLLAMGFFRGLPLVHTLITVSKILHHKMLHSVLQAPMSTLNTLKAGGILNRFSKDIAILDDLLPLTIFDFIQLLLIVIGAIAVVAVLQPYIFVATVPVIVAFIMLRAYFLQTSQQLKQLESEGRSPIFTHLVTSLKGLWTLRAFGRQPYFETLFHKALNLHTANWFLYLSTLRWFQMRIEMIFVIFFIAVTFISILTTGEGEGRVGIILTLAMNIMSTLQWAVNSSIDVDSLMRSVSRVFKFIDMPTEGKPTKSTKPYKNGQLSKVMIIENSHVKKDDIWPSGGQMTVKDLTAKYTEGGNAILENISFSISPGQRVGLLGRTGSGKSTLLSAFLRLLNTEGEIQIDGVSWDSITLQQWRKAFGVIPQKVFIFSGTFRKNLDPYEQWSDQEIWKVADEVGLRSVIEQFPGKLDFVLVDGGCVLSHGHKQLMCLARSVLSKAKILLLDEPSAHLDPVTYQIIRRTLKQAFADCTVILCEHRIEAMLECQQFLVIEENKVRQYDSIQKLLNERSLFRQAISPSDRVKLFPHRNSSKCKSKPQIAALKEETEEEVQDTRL

Row | Structure (SMILES) | Ieq
1 | COCCNC(=O)c1cc(-c2ccccc2)n[nH]1 | * (activity 100-200% of VX-809 (1 uM) with compound at 10 uM and VX-809 at 1 uM)
2 | O=C(NCCCn1ccnc1)c1cc(-c2ccccc2)n[nH]1 | * (activity 100-200% of VX-809 (1 uM) with compound at 10 uM and VX-809 at 1 uM)
3 | O=C(NCC1CCCO1)c1cc(-c2ccccc2)n[nH]1 (stereo not shown) | * (activity 100-200% of VX-809 (1 uM) with compound at 10 uM and VX-809 at 1 uM)
4 | O=C(NCCN1CCOCC1)c1cc(-c2ccccc2)n[nH]1 | * (activity 100-200% of VX-809 (1 uM) with compound at 10 uM and VX-809 at 1 uM)
